Where two headings read alike, the source gives them in different places. Starred links: 1 amine or outer side, 2 acyl side, 3 side chain; linkers in the order of their positions; H or OH if unused. Non-standard residues stand in square brackets, D forms with d. Residues, ends and D or L forms follow the SMILES beside them. X1 = O=C(C1CCC(CN[*:1])O1)[*:2]
How the values were obtained:
[1] = tested on: human colon adenocarcinoma (PTC) xenografts; experiment: In vivo antitumour activity on primary tumor (colon) xenografted mice; set-up: species or system Balb/c athymic mice; details: PTC xenografts in nude mice; intravenously 0.5 mg/Kg. B. Wt twice a day; till day 21
Protocol: The antitumor activity of the peptide (SEQ ID NO: 12) was studied in human colon adenocarcinoma (PTC) xenografts in nude mice. PTC tumor xenografts were grown in Balb/c athymic mice by subcutaneous inoculation of a single cell suspension of PTC cells (15×10^6 cells/100 μL). The tumor bearing animals were divided into 2 groups of five animals each including one group comprising untreated control animals. Treatment with novel peptide was initiated when the average tumor volumes, as measured using a vernier caliper, were between 400–800 mm^3. Solution of SEQ ID NO 12 was prepared at a concentration of 100 μg/ml and intravenously administered to the assigned group of tumor bearing animals at a dose of 0.5 mg/Kg. B. Wt twice a day so that the total dose of 1 mg/Kg. B. Wt was administered to each animal. The treatment was continued for a period of 21 days.
The antitumor activity of the compounds was monitored by measuring tumor volumes every fourth day using the formula W*W*L*0.4 (W=smaller diameter, L=larger diameter). The percentage inhibition of tumor growth was calculated using the formula (1-tumor volume-treated/tumor volume-control)* 100.

PTC (colon) = experiment: MTT cytotoxicity assay, PTC cells; format: cell-based, human; details: human, 48 hours
Source text: (§1) The following cell lines were used.

[2] = tested on: MiaPaCa.2 (human pancreas); experiment: MTT cytotoxicity assay, MiaPaCa.2 cells; format: cell-based; details: human, 48 hours
Source text: as §1

PA1 (human ovary) = experiment: MTT cytotoxicity assay, PA1 cells; format: cell-based; details: human, 48 hours
Source text: as §1

HeP-2 (larynx) = experiment: MTT cytotoxicity assay, HeP-2 cells; format: cell-based, human; details: human, 48 hours
Source text: as §1

KB (oral) = experiment: MTT cytotoxicity assay, KB cells; format: cell-based, human; details: human, 48 hours
Source text: as §1

ECV-304 (endothelial) = details: ECV-304 cells, 48 hours, NA = Not Active
Source text: Although sterile phosphate buffered saline was used to prepare each stock solution for the testing described in the following example, other diluents may be used such as buffered saline, isotonic NaCl, Ringer's solution, water, distilled water, polyethylene glycol (neat or in water), Tween in water, dimethylsulfoxide up to 50% in water, propylene glycol (neat or in water), phosphate buffered saline, balanced salt solution, glycerol, and other conventional fluids that are suitable for parentral administration. To obtain a pH in the range of approximately 3.5 to 7.0, for each stock solution, the pH can be adjusted by using 1N HCl for lowering the pH or 1N NaOH for raising the pH, although other buffers such as citrate buffer, phosphate buffer and the like or other conventional agents for adjusting the pH can be used.
The MTT assay is based on the principle of uptake of MTT [3-[4,5-dimethylthiazol-2-yl]-2,5-diphenyl tetrazolium bromide], a tetrazolium salt, by the metabolically active cells where it is metabolized by active mitochondria into a blue colored formazan product which can be read spectrophotometrically. […] The formazan crystals formed inside the cells were dissolved with a detergent comprising of 10% Sodium dodecyl sulfate and 0.01 N HCl and optical density read on a multi-scan ELISA reader. The optical density was directly proportional to the number of proliferating and metabolically active cells. The following cell lines were used. PA1(human ovary), PTC (colon), HeP-2 (larynx), MiaPaCa.2 (human pancreas), KB (oral), ECV-304 (endothelial) and HeP-G2 (liver).

SMILES: CSCC[C@H](NC(=O)[C@@H](N)CC(C)C)C(=O)N[C@@H](Cc1ccc(O)cc1)C(=O)NCC1CCC(C(=O)N[C@@H](Cc2ccc(O)cc2)C(=O)N[C@@H](CC(C)C)C(=O)N[C@@H](CCCCN)C(=O)O)O1 (stereo partly drawn) [SEQ ID NO: 12, Leu-Met-Tyr-Saa3-Tyr-Leu-Lys] (H-LMY[X1]YLK-OH)
- antitumor activity on PTC xenografts (tumor volume kinetics, FIG. 1) [1]: significant antitumor activity
- Percent Cytotoxicity (PTC (colon); 1 nM): 12.7 ± 1.8%
- Percent Cytotoxicity (PTC (colon); 10 nM): 14.8 ± 1.9%
- Percent Cytotoxicity (PTC (colon); 100 nM): 10.8 ± 2.0%
- Percent Cytotoxicity ([2]; 1 nM): 23.8 ± 3.2%
- Percent Cytotoxicity ([2]; 10 nM): 30.6 ± 3.9%
- Percent Cytotoxicity ([2]; 100 nM): 21.9 ± 0.2%
- Percent Cytotoxicity ([2]; 1 μM): 13.9 ± 2.7%
- Percent Cytotoxicity (PA1 (human ovary); 1 nM): 20.2 ± 2.1%
- Percent Cytotoxicity (PA1 (human ovary); 10 nM): 24.6 ± 2.7%
- Percent Cytotoxicity (PA1 (human ovary); 100 nM): 39.3 ± 3.0%
- Percent Cytotoxicity (PA1 (human ovary); 1 μM): 32.1 ± 2.0%
- Percent Cytotoxicity (HeP-2 (larynx); 1 nM): 21.9 ± 2.9%
- Percent Cytotoxicity (HeP-2 (larynx); 10 nM): 39.3 ± 3.2%
- Percent Cytotoxicity (HeP-2 (larynx); 100 nM): 32.2 ± 1.9%
- Percent Cytotoxicity (HeP-2 (larynx); 1 μM): 28.9 ± 3.2%
- Percent Cytotoxicity (KB (oral); 1 nM): 32.9 ± 4.3%
- Percent Cytotoxicity (KB (oral); 10 nM): 37.4 ± 2.9%
- Percent Cytotoxicity (KB (oral); 100 nM): 33.2 ± 0.4%
- Percent Cytotoxicity (KB (oral); 1 μM): 19.9 ± 1.9%
- Percent Cytotoxicity (ECV-304 (endothelial); peptide 1 nM): 32.0 ± 3.9%
- Percent Cytotoxicity (ECV-304 (endothelial); peptide 10 nM): 36.9 ± 3.2%
- Percent Cytotoxicity (ECV-304 (endothelial); peptide 100 nM): 27.9 ± 2.9%
- Percent Cytotoxicity (ECV-304 (endothelial); peptide 1 μM): 22.2 ± 2.2%

From patent publication US7060678B2, “Peptides comprising furanoid sugar amino acids for the treatment of cancer” (Dabur Research Foundation, priority 2003, dated 2006)
